Here are results for ten compounds from doi:10.1101/507434v1 (bioRxiv, 2018).

Where two headings read alike, the source gives them in different places. Bridge positions count the residues as written; N and C are the ends. Square brackets hold non-standard residues; d marks the D form. Ends that are not written are not given here. Peptide text beside a SMILES is read from it. d2Nal = N[C@H](Cc1ccc2ccccc2c1)C(=O)O; Nle = CCCC[C@H](N)C(=O)O

Series [1] relates to rats given LPS to induce cachexia. Kind of series: LPS. The series is classed as in vivo, rat. Conditions: for body weight as percent of pre-LPS baseline (Fig 1 Panel D) / food intake (Fig 1 Panel C): rats given LPS, peptide IP at 2mg/kg, 24 hours following challenge, 8/group; for oral anticachexia activity: LPS challenge, oral route of peptide administration.
Series [2] can be described thus: Pharmacokinetics of TCMCB07 in anesthetized rats: plasma and bile levels. The series is classed as in vivo, Sprague-Dawley rats.
Another series has as its system Lewis sarcoma rat model. Kind of series: Lewis sarcoma rat cancer cachexia model. Conditions: tumor-bearing rats, SC; for summary 6-Day food intake: two daily doses. The series is classed as in vivo.
Series [3] can be described thus: Plasma and liver concentration of antiviral peptides after oral gavage in mice. The series is classed as in vivo, female mice. Conditions: for level at time molar at 1 h / level at time molar at 2.5 h / level at time molar at 0.5 h / level at time molar at 2 h / level at time molar at 4 h: female, mouse, po; for level at time molar at 1 h / level at time molar at 2.5 h: 72 mg/kg; for level at time molar at 0.5 h / level at time molar at 2 h / level at time molar at 4 h: 60 mg/kg.

Series [4] relates to hepatitis C virus (HCV) RNA. Kind of series: Standard solution assays of anti-hepatitis C activity. The series is classed as biochemical.
In another series the test system is HCV replicon. Conditions: cellular HCV replicon assay; ref Bradford and Cowan, 2012; cited from earlier work. For orientation: A replicon is a self-replicating genome or part of one, used to study replication in cells.
The conditions of series [5]: ref Gallagher et al., 2016, cited from earlier work; for plasma half-life: separate experiment, in vitro or in vivo not stated.
The conditions of series [6]: ref Iusuf et al., 2008; cited from earlier work.
In series [7] the test system is orthotopic human breast cancer cell line transplant (cell line MDA-MB-231). Conditions: ref Gallagher et al., 2016; cited from earlier work.

As for “Ac-Nle-c[Asp-Pro-D-Nal(2′)-Arg-Trp-Lys]-β-Pro-β^3-Val-NH2 (sidechain bridge or staple) [TCMCB06]”, the “body weight as percent of pre-LPS baseline (Fig 1 Panel D)” value (“body weight as percent” for short) in series [1] is reported as “no weight gain”.

With `CCCC[C@H](NC(C)=O)C(=O)N[C@H]1CC(=O)NCCCC[C@@H](C(=O)N[C@@H](C(=O)N2CCC[C@@H]2C(N)=O)C(C)C)NC(=O)[C@H](Cc2c[nH]c3ccccc23)NC(=O)[C@H](CCCN=C(N)N)NC(=O)[C@@H](Cc2ccc3ccccc3c2)NC(=O)[C@@H]2CCCN2C1=O` [TCMCB07] (Ac-[Nle]DP[d2Nal]RWK[dV][dP]-NH2; lactam 2-7), the time to peak (Tmax) (as a rule, the time from dosing to the highest level) in [2] (Sprague-Dawley, rat, plasma, sc, 3 mg/kg) was 2.5 h. For the same compound, in series [2] (anesthetized rats, 3mg/kg SC (Fig. 3)), the “in vivo mechanism of clearance” value is “hepatic blood-to-bile transport”.

As to `CCCC[C@H](NC(C)=O)C(=O)N[C@H]1CC(=O)NCCCC[C@@H](C(=O)N[C@@H](C(=O)N2CCC[C@@H]2C(N)=O)C(C)C)NC(=O)[C@H](Cc2c[nH]c3ccccc23)NC(=O)[C@H](CCCNC(=N)N)NC(=O)[C@@H](Cc2ccc3ccccc3c2)NC(=O)[C@@H]2CCCN2C1=O` [TCMCB07] (Ac-[Nle]DP[d2Nal]RWK[dV][dP]-NH2; lactam 2-7), the “tumor weight / tumor growth” value in the series on Lewis sarcoma rat model (1.5 and 3 mg/kg BW/day, data not shown) is recorded as “no effect on tumor growth”. In addition, in the series on Lewis sarcoma rat model (total 1.5 mg/kg BW/day (LB07)), the “summary 6-Day food intake” value is listed as “not different than Sham/saline controls”. Also, in the series on Lewis sarcoma rat model (total 3mg/kg BW/day (HB07)), the “summary 6-Day food intake” value is recorded as “not different than Sham/saline controls”. Further, in series [1], the “body weight as percent” value is “produced a significant weight gain” and the “food intake (Fig 1 Panel C)” value is “stimulated appetite”. The oral anticachexia activity result in [1] (rats) was “shown to have oral anticachexia activity”.

Consider `CC(=O)NCC(=O)NCC(=O)N[C@@H](Cc1c[nH]cn1)C(=O)N[C@H]1CC(=O)NCCCC[C@@H](C(=O)N[C@@H](C(=O)N2CCC[C@@H]2C(N)=O)C(C)C)NC(=O)[C@H](CCCCN)NC(=O)[C@H](Cc2ccccc2)NC(=O)[C@H](CCCNC(=N)N)NC(=O)[C@H](Cc2ccc(O)cc2)NC1=O` [TCMP01] (Ac-GGHDYRFKK[dV][dP]-NH2; lactam 4-9), for which, in series [3] (liver), the level at time molar at 1 h is 14 nM and the level at time molar at 2.5 h was determined as 4 nM. In addition, in series [3] (plasma), the level at time molar at 1 h is 1000 nM and the level at time molar at 2.5 h worked out at 24 nM. The “solution antihepatitis activity relative to the parent peptide Metallo-drug 2-Cu” value in [4] is given as “within a factor of two”.

`CC(=O)NCC(=O)NCC(=O)N[C@@H](Cc1c[nH]cn1)C(=O)N[C@H]1CC(=O)NCCCC[C@@H](C(=O)N[C@@H](C(=O)N2CCC[C@@H]2C(N)=O)C(C)C)NC(=O)[C@H](CCCCN)NC(=O)[C@H](Cc2ccccc2)NC(=O)[C@H](CCCNC(=N)N)NC(=O)[C@H](Cc2ccc(O)cc2)NC(=O)[C@@H]2CCCN2C1=O` [TCMP03] (Ac-GGHDPYRFKK[dV][dP]-NH2; lactam 4-10): in series [3] (liver), the level at time molar at 0.5 h was determined as 43 nM, the level at time molar at 2 h was 30 nM and the level at time molar at 4 h was found to be 4 nM. In [3] (plasma), the level at time molar at 0.5 h came to 2910 nM, the level at time molar at 2 h came to 75700 nM and the level at time molar at 4 h turned out to be 384 nM. Moreover, the “enhancement of hepatic (target tissue) uptake relative to TCMP01” value in [3] (mice, oral gavage, Table 3) is 4 fold. Further, the “solution antihepatitis activity relative to the parent peptide Metallo-drug 2-Cu” value in series [4] is “within a factor of two”.

For “Ac-Nle-^1 c(Asp-Pro-D-Nal2’-Arg-Trp-Lys)-D-Pro-D-Val-NH2 (sidechain bridge or staple) [TCMCB02]”, the oral anticachexia activity result in [1] (rats) is “no oral anticachexia activity”. Also, in series [1] (rats, parenteral peptide after parenteral LPS, end of 12 hr dark cycle, n=6), the “overnight body weight gain” value is listed as about 5%.

Consider “Ac-Nle-c[Asp-Pro-D-Nal(2′)-Arg-Trp-Lys]-β-Pro-β^2-Val-NH2 (sidechain bridge or staple) [TCMCB05]”, for which, in series [1], the “body weight as percent” value is given as “produced a significant weight gain” and the “food intake (Fig 1 Panel C)” value is listed as “stimulated appetite”.

In the case of “GGHY[dR]FK [Metallo-drug 2-Cu, reference compound]”, the antiviral activity result in the series on HCV replicon was “confirmed”. For the same compound, in [3] (mice, oral gavage, also short circulating half-life and poor liver uptake stated), the oral availability entry was “no oral availability”.

With “Asp-Arg-Val-Tyr-Ile-His-Pro-OH [angiotensin^1-7, reference compound]”, the plasma half-life in series [5] is 0.5 h; in series [6] it was about 0.5 h. Also, the oral activity entry in series [7] is recorded as “not orally active”.

In the case of “Ac-Nle-c(Asp-Arg-Val-Tyr-Ile-His-Pro-Lys)-D-Val-D-Pro-NH2 (sidechain bridge or staple) [TCANG05]”, in series [5], the plasma half-life is 50 h. The “stability compared to angiotensin 1-7” value in series [5] (using in vitro and in vivo assays) is reported as “greatly enhanced stability”. Moreover, the oral activity result in series [7] is given as “orally active”.
